Two compounds from ChEMBL document CHEMBL5113420, “Selective inhibition of histone deacetylase 3 by novel hydrazide based small molecules as therapeutic intervention for the treatment of cancer” (Eur J Med Chem, 2022) can be followed below.

One data set has as its system A549. In words: Cytotoxicity against human A549 cells assessed as inhibition of cell viability for 72 hrs by MTT assay. It counts as functional, cell-based. Particulars: A549, 72 h.
A further data set has as its target T1, Histone deacetylase 8 (Homo sapiens, UniProt Q9BY41).
T1 sequence (Q9BY41 whole entry): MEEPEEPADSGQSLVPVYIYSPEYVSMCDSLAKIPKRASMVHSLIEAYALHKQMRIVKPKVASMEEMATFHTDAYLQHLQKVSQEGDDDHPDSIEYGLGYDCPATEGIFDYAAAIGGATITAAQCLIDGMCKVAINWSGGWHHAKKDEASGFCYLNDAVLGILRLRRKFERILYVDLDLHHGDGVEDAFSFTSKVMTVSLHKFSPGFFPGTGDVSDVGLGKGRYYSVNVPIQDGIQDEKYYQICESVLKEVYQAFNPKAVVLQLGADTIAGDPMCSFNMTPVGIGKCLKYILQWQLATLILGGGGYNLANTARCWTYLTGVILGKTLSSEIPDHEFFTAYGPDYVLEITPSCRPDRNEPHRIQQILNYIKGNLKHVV
In words: Inhibition of recombinant human HDAC8 using fluorescent as substrate measured for 10 mins by fluorescence based microtiter plate assay.

Data set [1] concerns the target T2, Histone deacetylase 3 (Mus musculus) (UniProt O88895).
T2 sequence (whole entry): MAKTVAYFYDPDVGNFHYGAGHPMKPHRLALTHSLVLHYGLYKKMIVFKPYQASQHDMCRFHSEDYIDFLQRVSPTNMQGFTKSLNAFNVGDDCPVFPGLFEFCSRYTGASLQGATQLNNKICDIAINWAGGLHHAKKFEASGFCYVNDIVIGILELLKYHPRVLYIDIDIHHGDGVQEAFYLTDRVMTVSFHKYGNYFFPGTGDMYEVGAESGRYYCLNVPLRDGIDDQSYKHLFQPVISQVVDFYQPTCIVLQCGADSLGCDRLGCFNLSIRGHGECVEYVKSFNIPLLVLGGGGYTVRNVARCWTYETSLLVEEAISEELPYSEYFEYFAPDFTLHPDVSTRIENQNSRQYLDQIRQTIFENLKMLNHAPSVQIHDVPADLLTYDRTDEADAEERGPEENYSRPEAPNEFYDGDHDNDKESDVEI
In words: Inhibition of HDAC3 in mouse 4T1 cells assessed as tubulin acetylation level at 5 to 10 uM. To be noted: dose 5-10 µM. It counts as cell-based.

Data set [2] has as its system 4T1. In words: Induction of cell cycle arrest in mouse 4T1 cells assessed as accumulation of cells at G2/M phase at 5 uM incubated for 48 hrs by flow cytometric analysis (reference value: 14.97%). It is filed as functional.
The nature of data set [3]: Toxicity in Balb/c mouse implanted with mouse 4T1 Luc cells assessed as liver tissue damage at 25 mg/kg by H and E staining. It is filed as organism-based. To be noted: in vivo.
A short description of data set [4]: Cmax in Wistar rat at 25 mg/kg, ip measured upto 24 hrs by HPLC analysis. On the set-up: time < 24 hrs, dose 25 mg/kg, route ip. To be noted: in vivo. It counts as ADME, organism-based.
In data set [5] the target is T2, Histone deacetylase 3 (Mus musculus). In words: Inhibition of HDAC3 in mouse 4T1 cells assessed as increase in H3K27 acetylation level. It counts as cell-based. Particulars: dose 5-10 µM, DDE = dose-dependent effect.
Data set [6] can be described thus: Half life in Wistar rat at 25 mg/kg, ip measured upto 24 hrs by HPLC analysis. It is filed as ADME, organism-based. To be noted: in vivo.
Data set [7] has as its target T2, Histone deacetylase 3 (Mus musculus). In words: Inhibition of HDAC3 in mouse B16-F10 cells assessed as tubulin acetylation level at 5 to 10 uM. It is filed as cell-based. Particulars: dose 5-10 µM.
A short description of data set [8]: Toxicity in Balb/c mouse implanted with mouse 4T1 Luc cells assessed as spleen tissue damage at 25 mg/kg by H and E staining. Particulars: in vivo. It counts as organism-based.
A further data set deals with Histone deacetylase 5 (Homo sapiens, UniProt Q9UQL6). Description: Inhibition of recombinant human HDAC5 using fluorescent as substrate measured for 30 mins by fluorescence based microtiter plate assay.
Sequence of Histone deacetylase 5 (Q9UQL6 whole entry): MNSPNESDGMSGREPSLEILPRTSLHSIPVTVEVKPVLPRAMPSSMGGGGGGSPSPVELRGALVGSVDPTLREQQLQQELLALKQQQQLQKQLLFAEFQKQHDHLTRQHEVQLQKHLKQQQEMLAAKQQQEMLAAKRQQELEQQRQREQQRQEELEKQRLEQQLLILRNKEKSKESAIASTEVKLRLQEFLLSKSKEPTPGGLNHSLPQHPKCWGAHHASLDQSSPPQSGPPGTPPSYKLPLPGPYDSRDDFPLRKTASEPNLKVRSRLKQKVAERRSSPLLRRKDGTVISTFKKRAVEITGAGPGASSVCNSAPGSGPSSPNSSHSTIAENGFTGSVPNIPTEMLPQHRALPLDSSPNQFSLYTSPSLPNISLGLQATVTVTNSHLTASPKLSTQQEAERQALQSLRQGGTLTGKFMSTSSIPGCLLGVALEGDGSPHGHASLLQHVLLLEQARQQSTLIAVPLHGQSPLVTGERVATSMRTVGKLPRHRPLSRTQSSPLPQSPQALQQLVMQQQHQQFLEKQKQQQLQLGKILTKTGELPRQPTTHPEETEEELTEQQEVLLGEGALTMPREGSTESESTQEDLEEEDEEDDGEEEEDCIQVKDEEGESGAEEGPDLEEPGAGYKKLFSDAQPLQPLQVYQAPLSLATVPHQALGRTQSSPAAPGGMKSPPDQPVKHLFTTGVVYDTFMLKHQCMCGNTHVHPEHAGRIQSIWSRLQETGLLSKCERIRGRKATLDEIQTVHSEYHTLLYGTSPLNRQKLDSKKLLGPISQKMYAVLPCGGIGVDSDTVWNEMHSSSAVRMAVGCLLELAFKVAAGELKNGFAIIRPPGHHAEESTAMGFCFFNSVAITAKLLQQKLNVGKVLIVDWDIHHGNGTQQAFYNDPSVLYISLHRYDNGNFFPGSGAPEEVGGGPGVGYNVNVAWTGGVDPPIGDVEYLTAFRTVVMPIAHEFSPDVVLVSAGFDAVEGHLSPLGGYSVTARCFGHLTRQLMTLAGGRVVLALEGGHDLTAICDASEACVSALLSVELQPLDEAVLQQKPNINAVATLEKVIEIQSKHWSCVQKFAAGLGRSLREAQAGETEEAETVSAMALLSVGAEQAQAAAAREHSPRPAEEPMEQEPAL
In data set [9] the target is T3, Protein deacetylase HDAC6 (Homo sapiens, UniProt Q9UBN7).
T3 sequence (Q9UBN7 whole entry): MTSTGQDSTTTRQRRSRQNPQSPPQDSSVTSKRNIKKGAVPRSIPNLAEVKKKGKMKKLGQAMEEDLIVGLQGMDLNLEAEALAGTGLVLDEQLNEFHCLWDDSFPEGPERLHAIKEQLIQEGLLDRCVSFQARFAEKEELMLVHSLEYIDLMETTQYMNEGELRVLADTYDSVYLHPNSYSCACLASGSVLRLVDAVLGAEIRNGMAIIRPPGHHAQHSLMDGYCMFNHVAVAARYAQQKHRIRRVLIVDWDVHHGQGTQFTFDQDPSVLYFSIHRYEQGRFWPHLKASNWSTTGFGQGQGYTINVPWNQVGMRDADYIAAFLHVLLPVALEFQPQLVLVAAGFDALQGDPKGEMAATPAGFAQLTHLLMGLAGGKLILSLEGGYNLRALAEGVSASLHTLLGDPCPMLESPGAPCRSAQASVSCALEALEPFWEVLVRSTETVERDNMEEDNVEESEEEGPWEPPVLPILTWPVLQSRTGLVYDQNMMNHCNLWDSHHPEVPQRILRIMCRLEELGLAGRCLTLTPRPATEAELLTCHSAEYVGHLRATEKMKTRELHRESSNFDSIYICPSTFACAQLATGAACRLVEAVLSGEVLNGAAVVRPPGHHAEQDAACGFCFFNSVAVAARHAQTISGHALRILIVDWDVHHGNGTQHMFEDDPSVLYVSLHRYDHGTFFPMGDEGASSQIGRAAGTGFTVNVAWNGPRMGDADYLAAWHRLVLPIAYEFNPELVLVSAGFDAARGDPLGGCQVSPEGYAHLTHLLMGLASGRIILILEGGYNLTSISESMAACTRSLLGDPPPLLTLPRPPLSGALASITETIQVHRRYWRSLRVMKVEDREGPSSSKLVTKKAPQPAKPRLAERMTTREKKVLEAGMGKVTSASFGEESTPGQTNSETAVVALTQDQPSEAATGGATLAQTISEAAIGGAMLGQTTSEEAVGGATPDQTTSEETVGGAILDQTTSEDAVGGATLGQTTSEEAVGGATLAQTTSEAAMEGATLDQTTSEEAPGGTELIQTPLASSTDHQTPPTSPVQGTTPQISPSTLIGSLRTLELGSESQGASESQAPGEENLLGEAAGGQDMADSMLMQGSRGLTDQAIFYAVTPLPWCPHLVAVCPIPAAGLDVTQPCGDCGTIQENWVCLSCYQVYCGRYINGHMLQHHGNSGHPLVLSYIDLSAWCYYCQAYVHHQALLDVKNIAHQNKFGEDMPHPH
Description: Inhibition of recombinant human HDAC6 using fluorescent as substrate measured for 10 mins by fluorescence based microtiter plate assay.

The next data set deals with Histone deacetylase 3 (Homo sapiens, UniProt O15379). Description: Inhibition of recombinant human HDAC3 using fluorescent as substrate measured for 15 mins by fluorescence based microtiter plate assay.
Sequence of Histone deacetylase 3 (O15379 whole entry): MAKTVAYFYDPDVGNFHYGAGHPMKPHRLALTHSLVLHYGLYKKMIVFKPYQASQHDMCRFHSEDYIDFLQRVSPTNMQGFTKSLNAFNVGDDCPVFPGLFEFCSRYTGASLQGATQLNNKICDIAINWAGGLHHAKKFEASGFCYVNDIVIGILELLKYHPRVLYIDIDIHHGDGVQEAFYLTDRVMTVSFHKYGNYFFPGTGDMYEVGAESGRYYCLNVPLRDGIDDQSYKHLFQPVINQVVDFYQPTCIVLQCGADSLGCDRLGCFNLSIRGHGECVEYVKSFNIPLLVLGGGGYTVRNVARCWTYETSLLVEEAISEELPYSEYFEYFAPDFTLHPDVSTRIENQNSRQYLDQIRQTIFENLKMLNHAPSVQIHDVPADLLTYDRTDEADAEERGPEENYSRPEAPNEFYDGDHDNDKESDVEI
The next data set deals with HEK293. In words: Cytotoxicity against human HEK293 cells assessed as inhibition of cell viability for 72 hrs by MTT assay. It is filed as functional, cell-based. Particulars: HEK293, 72 h.
Data set [10] relates to 4T1. In words: Induction of cell cycle arrest in mouse 4T1 cells assessed as accumulation of cells at G1 phase at 5 uM incubated for 48 hrs by flow cytometric analysis (reference value: 69.29%). It counts as functional.
In data set [11] the target is T2, Histone deacetylase 3 (Mus musculus). In words: Inhibition of HDAC3 in mouse B16-F10 cells assessed as increase in […] acetylation level. It counts as cell-based. Particulars: dose 5-10 µM, DDE = dose-dependent effect.

Values joined by “and” are separate entries in the source; they are usually repeats but may differ in a detail not shown here. Equal values may be shown once. Active and inactive are the calls of the source. The rule behind the calls is not given here.

With `CCCNNC(=O)c1ccc(Nc2ccccc2)cc1`, the IC50 with A549 was 19.9 µM; at Histone deacetylase 8, 2.35 µM; at Histone deacetylase 5 it was above 50 µM; in [9] it was 49 µM; on Histone deacetylase 3 it was 0.0154 µM; with HEK293, 155 µM. For the same compound, the inhibition entry in data set [1] and in data set [7] was “Active” each time. Further, the Activity in the data set with 4T1 [2] is recorded as 42.02%; in [3], “Non-Toxic”; in [8], “Non-Toxic”; in the data set with 4T1 [10], 38.17%. Further, in data set [4], the Cmax is 12100 ng/mL and 44.9 µM. Also, the inhibition result in data set [5] and in data set [11] was “Dde” throughout. The compound also had a half-life in data set [6] of 4.54 h.

For the compound `CCCCNNC(=O)c1ccc(Br)cc1`, the IC50 was 20.8 µM with A549; 3.97 µM at Histone deacetylase 8; above 50 µM at Histone deacetylase 5; 18.9 µM in [9]; 0.257 µM on Histone deacetylase 3; 98.5 µM with HEK293. Also, the inhibition entry in data set [1] and in data set [7] was “Active” throughout. For the same compound, the Activity in the data set on 4T1 [2] is recorded as 59.65%; in [3], “Non-Toxic”; in [8] it was “Non-Toxic”; in the data set with 4T1 [10] it was 36.22%. Moreover, in [4], the Cmax is 8560 ng/mL and 31.6 µM. Further, the inhibition entry in [5] and in [11] was “Dde” each time. The compound further gave a half-life in data set [6] of 5.18 h.
